Earlier results in paper PMC12211128, “Safety, tolerability, pharmacokinetic and pharmacodynamic effects of the muscarinic M1 positive allosteric modulator VU0467319 for Alzheimer’s disease: a single ascending-dose study in healthy participants” (Alzheimer's Research & Therapy, 2025).

Assays:
M1 mAChR = settings: cited from earlier work
Parkinson's disease = tested on: Parkinson's disease; set-up: method as in PMID 39761063; settings: cited from earlier work

Row | Structure (SMILES) | agonist and PAM properties at M1 (M1 mAChR) | cognitive performance in Parkinson's disease (Parkinson's disease)
1 | COc1ccc(Cn2cc(C(=O)O)c(=O)c3ccccc32)cc1 [BQCA, benzyl quinolone carboxylic acid, reference compound] | both agonist and PAM properties | 
2 | Cc1c(Cc2ccc(-n3cccn3)cc2)cc2c(c1F)CN([C@H]1COCC[C@@H]1O)C2=O [TAK-071] |  | produced improvement in cognitive performance
